Data: patent publication US20100041689A1, “Combined Effects of Topiramate and Ondansetron on Alcohol Consumption” (UNIVERSITY OF VIRGINIA PATENT FOUNDATION, priority 2006, published 2010)

Legend:
[1] = tested on: alcohol-preferring (P) rats; assay: Ethanol consumption, 24-hour-access two-bottle choice (10% ethanol vs. water), P rats; type: in vivo, rat; details: for decrease from baseline in alcohol consumption: Example 1, topiramate 10 mg/kg IP, ondansetron 0.001 mg/kg IP, test session, mean±SE of 17 rats; for decrease from baseline in alcohol consumption / preference for ethanol over water, average on test sessions / preference for ethanol over water, baseline change: P rats; for ethanol consumption vs baseline: Example 4, P rats N=18, topiramate 10 mg/kg, ondansetron 0.001 mg/kg, FIG. 4A; for preference for ethanol over water, average on test sessions: baseline average preference 0.6±0.2; for preference for ethanol over water, baseline change: test sessions
Procedure: Combined effect of topiramate (10 mg/kg, IP) and ondansetron (0.001 mg/kg, IP) on alcohol consumption in alcohol-preferring (P) rats. […] Data were plotted across 7 consecutive sessions, which include a 3-day baseline period, the test session in which the ondansetron and/or topiramate injection was administered, and the 3 sessions that followed the test session. […]
(§1) The effects of ondansetron and topiramate were examined for their ability to modulate two important aspects of alcohol abuse: total consumption and relapse. Total consumption was examined under a 24-hour-access two-bottle choice procedure wherein rats had unlimited access to alcohol solutions (10%) and water. Alcohol relapse was assessed in alcohol-dependent rats by examining alcohol consumption following an extended abstinence period. Specifically, in alcohol-dependent rats, when alcohol is reintroduced following an extended abstinence period, rats show marked increases in consumption as compared with levels of consumption prior to abstinence.
(§2) 1) The combination of topiramate and ondansetron reduces ethanol consumption in rats: Total consumption was examined under a 24-hour-access two-bottle choice procedure (10% ethanol vs. water). To induce drinking, both Wistar and P rats were trained onto ethanol using a standard sucrose fading procedure. […] At baseline, the average preference was 0.6±0.2, and the average values observed on test sessions with topiramate alone, ondansetron alone, the combination of topiramate and ondansetron, and vehicle were 0.51±0.2 (−9±4% baseline change), 0.58±0.0 (1±2%), 0.51±0.03 (−11±4%), and 0.59±0.03 (1%±0), respectively. […] At baseline, the average preference ratio was 0.30±0.03 and the average values observed on test sessions with topiramate alone, ondansetron alone, the combination of topiramate and ondansetron, and vehicle were 0.25±0.03 (−6±7% baseline change), 0.26±0.04 (2±2%), 0.31±0.02 (1±3%; P<0.05), and 0.3±0.03 (6%±4), respectively.

[2] = tested on: alcohol-preferring (P) rats; assay: Alcohol deprivation effect (ADE, relapse model), P rats; type: in vivo, rat; details: for alcohol deprivation effect (ADE), consumption 24 hours after ethanol reinstated: Example 4, chronic daily treatment from day 8 of 15-day withdrawal, topiramate 10 mg/kg, ondansetron 0.001 mg/kg, FIG. 5A
Procedure: as §1

Wistar rats = assay: Ethanol consumption, 24-hour-access two-bottle choice, Wistar rats; type: in vivo, rat; details: for alcohol consumption, change from baseline: Example 3, ondansetron 0.001 or 0.01 mg/kg with topiramate 10 mg/kg IP, 4 to 5 rats, FIG. 3; for alcohol consumption, change from baseline / preference ratio for ethanol over water, average on test sessions / preference for ethanol over water, baseline change: Wistar rats; for ethanol consumption: Example 4, Wistar rats n=5, preliminary, FIG. 4B; for preference ratio for ethanol over water, average on test sessions: baseline average 0.30±0.03; for preference for ethanol over water, baseline change: test sessions
Procedure: Combined effect of topiramate (5 and 10 mg/kg, IP) and ondansetron (0.001 and 0.01 mg/kg, IP) on alcohol consumption in Wistar rats. […] The experiments utilized four to five rats per condition. Data are expressed as change from baseline levels of alcohol consumption.
as §1, §2

[3] = tested on: alcohol-dependent subjects; assay: Topiramate alone in alcohol dependence (comparison data from a different study); type: in vivo, human
[4] = tested on: alcohol-dependent subjects; details: topiramate alone, cited from earlier work
early-onset alcoholics [5] = details: ondansetron in early-onset alcoholics
early-onset alcoholics [6] = details: cited from earlier work

SMILES | decrease from baseline in alcohol consumption [1] | ethanol consumption vs baseline [1] | preference for ethanol over water, average on test sessions [1] | preference for ethanol over water, baseline change [1] | alcohol deprivation effect (ADE), consumption 24 hours after ethanol reinstated [2] | alcohol consumption, change from baseline (Wistar rats) | ethanol consumption (Wistar rats) | preference ratio for ethanol over water, average on test sessions (Wistar rats) | preference for ethanol over water, baseline change (Wistar rats) | also measured
CC1(C)O[C@@H]2[C@@H](CO[C@@]3(COS(N)(=O)=O)OC(C)(C)O[C@@H]23)O1 [Topiramate, 2,3:4,5-Bis-O-(1-methylethylidene)-beta-D-fructopyranose sulfamate] | 13±5% | significant decrease from baseline ethanol consumption | 0.51±0.2 | −9±4% | blocked the ADE | lack of modulation | no affect was observed on consumption | 0.25±0.03 | −6±7% | alcohol consumption following a two-week abstinence period (alcohol deprivation effect) ([2]; Example 2, topiramate 10 mg/kg IP, ondansetron 0.001 mg/kg IP, 2 to 3 rats, FIG. 2): attenuated the alcohol deprivation effect; Cohen's effect size: drinks per day [3]: −0.80; Cohen's effect size: drinks per drinking day [3]: −0.63; Cohen's effect size: percentage of days abstinent [3]: +0.73; adverse event rate: dizziness ([4]; different study): 28%; adverse event rate: paresthesia ([4]; different study): 54%; adverse event rate: slowing in psychomotor performance ([4]; different study): 27%; individuals reporting weight loss [4]: 19.7%; frequency of paresthesia ([4]; share of individuals): over 50%
Cc1nccn1CC1CCc2c(c3ccccc3n2C)C1=O (stereo not drawn) [Ondansetron, 9-methyl-3-[(2-methyl-1H-imidazol-1-yl)methyl]-1,2,3,9-tetrahydrocarbazol-4-one] | 1%±7% | did not impact ethanol consumption on its own | 0.58±0.0 | 1±2% | blocked the ADE | lack of modulation | no affect was observed on consumption | 0.26±0.04 | 2±2% | Cohen's effect size: drinks per day (early-onset alcoholics [5]): −0.55; Cohen's effect size: drinks per drinking day (early-onset alcoholics [5]): −0.48; Cohen's effect size: percentage of days abstinent (early-onset alcoholics [5]): +0.27; report of weight loss (early-onset alcoholics [6]; individuals taking ondansetron alone): no appreciable report of weight loss; paresthesia (early-onset alcoholics [6]; ondansetron administered alone): not associated with paresthesia; mean reduction in drinks per day (early-onset alcoholics [6]; ondansetron alone in early-onset alcoholics): −3.28 drinks per day
